Data on 17 compounds can be found in patent publication US20210070748A1, “INHIBITORS OF BRUTONS TYROSINE KINASE” (Pharmacyclics LLC, priority 2015, published 2021).

Common to all, as to type: biochemical
One experiment deals with SRC (Homo sapiens, UniProt P12931). Nature of the experiment: Inhibition of a panel of kinases, in vitro HotSpot kinase assay: SRC. Conditions: for SRC* IC50 relative to Btk IC50 value: fold relative to Btk IC50 value; for IC50: 1 μM ATP. The protocol: (§1) The degree of inhibition of a panel of kinases is determined using the in vitro HotSpot kinase assay (purified enzymes, ^33P-ATP, an appropriate substrate and 1 μM ATP).
Chain of SRC (P12931 whole entry): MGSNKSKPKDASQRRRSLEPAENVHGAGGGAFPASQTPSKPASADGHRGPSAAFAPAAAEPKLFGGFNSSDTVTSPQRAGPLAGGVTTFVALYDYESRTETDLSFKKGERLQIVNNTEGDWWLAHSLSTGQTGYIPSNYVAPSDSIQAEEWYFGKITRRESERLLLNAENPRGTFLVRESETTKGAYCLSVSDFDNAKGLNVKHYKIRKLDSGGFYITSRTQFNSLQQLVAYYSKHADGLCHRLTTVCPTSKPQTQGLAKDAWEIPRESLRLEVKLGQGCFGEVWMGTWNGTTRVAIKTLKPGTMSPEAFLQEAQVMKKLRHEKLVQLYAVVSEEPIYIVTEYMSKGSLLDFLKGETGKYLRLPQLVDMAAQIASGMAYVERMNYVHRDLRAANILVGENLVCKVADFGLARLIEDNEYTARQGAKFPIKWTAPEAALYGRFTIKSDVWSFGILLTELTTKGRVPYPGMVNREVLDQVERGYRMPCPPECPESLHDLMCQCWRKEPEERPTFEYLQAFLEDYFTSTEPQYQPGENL

Another experiment deals with T1, JAK3 (Homo sapiens, UniProt P52333).
T1 sequence (P52333 1-1124): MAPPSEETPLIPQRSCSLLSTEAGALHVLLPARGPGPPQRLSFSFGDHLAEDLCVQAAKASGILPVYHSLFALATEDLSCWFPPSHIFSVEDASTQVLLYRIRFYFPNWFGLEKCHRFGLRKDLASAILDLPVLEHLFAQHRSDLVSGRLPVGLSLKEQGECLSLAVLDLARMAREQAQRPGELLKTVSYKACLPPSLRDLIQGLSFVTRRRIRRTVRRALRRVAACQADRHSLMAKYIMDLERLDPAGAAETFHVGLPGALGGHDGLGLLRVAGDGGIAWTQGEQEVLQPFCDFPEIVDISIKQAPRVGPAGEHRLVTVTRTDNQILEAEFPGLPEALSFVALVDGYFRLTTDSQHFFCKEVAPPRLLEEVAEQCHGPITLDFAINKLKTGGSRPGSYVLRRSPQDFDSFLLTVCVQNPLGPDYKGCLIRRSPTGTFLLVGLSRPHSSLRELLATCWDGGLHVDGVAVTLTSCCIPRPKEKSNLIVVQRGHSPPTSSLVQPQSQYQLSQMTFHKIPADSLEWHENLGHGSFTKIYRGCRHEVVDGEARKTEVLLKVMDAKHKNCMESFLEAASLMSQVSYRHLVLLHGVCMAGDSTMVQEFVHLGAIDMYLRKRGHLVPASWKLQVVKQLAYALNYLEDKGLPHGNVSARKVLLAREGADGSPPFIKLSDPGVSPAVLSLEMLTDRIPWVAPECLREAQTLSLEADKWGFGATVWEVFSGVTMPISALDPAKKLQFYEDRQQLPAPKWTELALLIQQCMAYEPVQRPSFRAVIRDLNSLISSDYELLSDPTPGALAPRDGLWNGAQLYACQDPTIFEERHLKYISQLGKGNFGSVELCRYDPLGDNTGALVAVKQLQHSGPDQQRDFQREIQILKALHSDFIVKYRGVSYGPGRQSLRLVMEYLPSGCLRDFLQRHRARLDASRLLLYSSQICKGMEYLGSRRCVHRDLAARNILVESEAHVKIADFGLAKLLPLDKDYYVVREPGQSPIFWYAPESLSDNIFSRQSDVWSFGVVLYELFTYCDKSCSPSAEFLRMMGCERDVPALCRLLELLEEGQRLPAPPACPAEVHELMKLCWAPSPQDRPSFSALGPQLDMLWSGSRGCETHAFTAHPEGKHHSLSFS
Nature of the experiment: Inhibition of a panel of kinases, in vitro HotSpot kinase assay: JAK3. Conditions: for JAK3* IC50 relative to Btk IC50 value: fold relative to Btk IC50 value; for IC50: 1 μM ATP, read-out: IC50 JAK3.

A further experiment deals with T2, TXK (Homo sapiens, UniProt P42681).
T2 sequence (P42681 1-527): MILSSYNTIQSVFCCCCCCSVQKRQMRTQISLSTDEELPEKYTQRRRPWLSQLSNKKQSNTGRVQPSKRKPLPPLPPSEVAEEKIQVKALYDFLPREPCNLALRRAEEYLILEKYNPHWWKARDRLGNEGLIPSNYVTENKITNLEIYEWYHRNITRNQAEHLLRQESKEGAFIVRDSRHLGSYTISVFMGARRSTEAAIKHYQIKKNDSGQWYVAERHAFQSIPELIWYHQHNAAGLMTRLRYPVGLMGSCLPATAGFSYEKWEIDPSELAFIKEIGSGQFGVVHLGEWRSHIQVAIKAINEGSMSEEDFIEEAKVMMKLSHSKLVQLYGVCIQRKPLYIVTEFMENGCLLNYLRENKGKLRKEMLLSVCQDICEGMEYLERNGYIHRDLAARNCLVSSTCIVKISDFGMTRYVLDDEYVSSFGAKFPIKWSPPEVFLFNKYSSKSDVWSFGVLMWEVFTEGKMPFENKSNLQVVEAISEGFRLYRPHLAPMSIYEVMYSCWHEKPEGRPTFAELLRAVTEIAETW
The experiment can be described thus: Inhibition of a panel of kinases, in vitro HotSpot kinase assay: TXK. Conditions: Table 15, C compounds; 1 μM ATP. The protocol: as §1

Read-outs that look alike come from different tables or passages of the source.

As for `C[C@@H]1[C@H](NC(=O)c2ccc(C3CC3)cc2)CCCN1c1cnc(C(N)=O)c(Nc2cnn(C(F)F)c2)n1` [Example A-198, 5-[(2R,3R)-3-(4-cyclopropylbenzamido)-2-methylpiperidin-1-yl]-3-{[1-(difluoromethyl)-1H-pyrazol-4-yl]amino}pyrazine-2-carboxamide], the “SRC* IC50 relative to Btk IC50 value” on SRC is 69x. Moreover, on JAK3, the “JAK3* IC50 relative to Btk IC50 value” came out at 1276x.

Regarding `C=CC(=O)N1CCC[C@@H](N(C)c2cnc(C(N)=O)c(Nc3ccc(C4(C)CCN(C5CCCC5)CC4)cc3)n2)C1` [Example C-44, (R)-5-((1-acryloylpiperidin-3-yl)(methyl)amino)-3-(4-(1-cyclopentyl-4-methylpiperidin-4-yl)phenylamino) pyrazine-2-carboxamide], the half-inhibitory concentration (IC50) (in general, the concentration that gives 50% inhibition) was ≤ 10 nM on SRC (Table 15, C compounds); ≤ 10 nM at TXK; < 10 nM at JAK3 (Table 15, C compounds).

In the case of `C[C@@H]1[C@H](NC(=O)c2cc3c(n2C)CC(C)(C)C3)CCCN1c1cnc(C(N)=O)c(Nc2cnn(C)c2)n1` [Example A-193, N-((2R,3R)-1-(5-carbamoyl-6-(1-methyl-1H-pyrazol-4-ylamino)pyrazin-2-yl)-2-methylpiperidin-3-yl)-1,5,5-trimethyl-1,4,5,6-tetrahydrocyclo-penta[b]pyrrole-2-carboxamide], the half-inhibitory concentration (IC50) is 100 to 1000 nM at SRC (Table 13, A compounds) and 100 to 1000 nM at JAK3 (Table 13, A compounds).

As for `C[C@@H]1[C@H](NC(=O)c2ccc(C3CC3)cc2)CCCN1c1nnc(C(N)=O)c(Nc2cnn(C)c2)n1` [Example A-201, 3-[(2R,3R)-3-(4-cyclopropylbenzamido)-2-methylpiperidin-1-yl]-5-[(1-methyl-1H-pyrazol-4-yl)amino]-1,2,4-triazine-6-carboxamide], the “SRC* IC50 relative to Btk IC50 value” at SRC is given as 47x. Further, on JAK3, the “JAK3* IC50 relative to Btk IC50 value” is listed as 1102x.

Turning to `Cn1cc(Nc2nc(N3CCC[C@@H](NC(=O)c4ccc(C5CC5)cc4)C3)nnc2C(N)=O)cn1` [Example A-202, 3-[(3R)-3-(4-cyclopropylbenzamido)piper-idin-1-yl]-5-[(1-methyl-1H-pyrazol-4-yl)amino]-1,2,4-triazine-6-carboxamide], the “SRC* IC50 relative to Btk IC50 value” at SRC turned out to be 159x. Besides, the “JAK3* IC50 relative to Btk IC50 value” at JAK3 is recorded as 631x.

Consider `C=CC(=O)N1CCC[C@@H](N(C)c2cnc(C(N)=O)c(Nc3ccc(C(C)C)cc3)n2)C1` [Example C-42, (R)-5-((1-acryloylpiperidin-3-yl)(methyl)amino)-3-(4-isopropylphenylamino) pyrazine-2-carboxamide], for which the IC50 is 100 to 1000 nM against SRC (Table 15, C compounds); ≤ 10 nM at TXK; 10 to 100 nM at JAK3 (Table 15, C compounds).

For the compound `CN1CCN(c2ccc(Nc3nc(N4CCC[C@@H](n5ccc6cc(C7CC7)ccc6c5=O)C4)cnc3C(N)=O)cc2)CC1` [Example A-99, 5-[(3R)-3-(6-cyclo-propyl-1-oxo-1,2-dihydroisoquinolin-2-yl)piperidin-1-yl]-3-{[4-(4-methylpiperazin-1-yl)phenyl]amino}pyrazine-2-carboxamide], the IC50 against SRC (Table 13, A compounds) lay in the range of 100 to 1000 nM; at JAK3 (Table 13, A compounds) it was 1000 to 10000 nM.

Regarding `Cc1nn(C)cc1Nc1nc(N2CCC[C@@H](NC(=O)c3ccc(C4CC4)cc3)[C@H]2C)cnc1C(N)=O` [Example A-192, 5-((2R,3R)-3-(4-cyclopropylbenzamido)-2-methylpiperidin-1-yl)-3-(1,3-dimethyl-1H-pyrazol-4-ylamino)pyrazine-2-carboxamide], the IC50 is > 10000 nM at SRC (Table 13, A compounds) and > 10000 nM on JAK3 (Table 13, A compounds).

`Cc1c(Nc2nc(N3CCC[C@@H](NC(=O)c4ccc(C5CC5)cc4)[C@H]3C)cnc2C(N)=O)cnn1C` [Example A-191, 5-((2R,3)R-3-(4-cyclopropylbenzamido)-2-methylpiperidin-1-yl)-3-(1,5-dimethyl-1H-pyrazol-4-ylamino)pyrazine-2-carboxamide]: the IC50 against SRC (Table 13, A compounds) is 1000 to 10000 nM; on JAK3 (Table 13, A compounds), > 10000 nM.

Turning to `C[C@@H]1[C@H](NC(=O)N(C)C)CCCN1c1cnc(C(N)=O)c(Nc2ccc(N3CCN(C)CC3)cc2)n1` [Example A-100, 5-[(2R,3R)-3-[(dimethylcarbamoyl)amino]-2-methylpiperidin-1-yl]-3-{[4-(4-methylpiperazin-1-yl)phenyl]amino}pyrazine-2-carboxamide], the IC50 against SRC (Table 13, A compounds) lay within 10 to 100 nM; on JAK3 (Table 13, A compounds) it was 100 to 1000 nM.

For the compound `C=CC(=O)N1CC[C@@H](N(C)c2nnc(C(N)=O)c(Nc3ccc(C(C)C)cc3)n2)C1` [Example C-41, (R)-3-((1-acryloylpyrrolidin-3-yl)(methyl)amino)-5-(4-isopropylphenylamino)-1,2,4-triazine-6-carboxamide], the IC50 is 10 to 100 nM on SRC (Table 15, C compounds); ≤ 10 nM at TXK; < 10 nM at JAK3 (Table 15, C compounds).

For `C=CC(=O)N1CCC[C@@H](Nc2nnc(C(N)=O)c(Nc3ccc(C(C)(C)C)cc3)n2)C1` [Example C-40, (R)-3-(1-acryloylpiperidin-3-ylamino)-5-(4-tert-butylphenylamino)-1,2,4-triazine-6-carboxamide], the IC50 against TXK is ≤ 10 nM; on JAK3 (Table 15, C compounds), < 10 nM.

On to `C[C@@H]1[C@H](NC(=O)c2ccc(C(C)(C)O)cc2)CCCN1c1cnc(C(N)=O)c(Nc2cnn(C)c2)n1` [Example A-200, 5-((2R,3R)-3-(4-(2-hydroxypropan-2-yl)benzamido)-2-methyl-piperidin-1-yl)-3-(1-methyl-1H-pyrazol-4-yl-amino)pyrazine-2-carboxamide], for which, at SRC, the “SRC* IC50 relative to Btk IC50 value” turned out to be 40x. Further, the “JAK3* IC50 relative to Btk IC50 value” at JAK3 turned out to be 411x.

As to `C[C@@H]1[C@H](NC(=O)c2ccc(C3CC3)cc2)CCCN1c1cnc(C(N)=O)c(Nc2cnn(C3CC3)c2)n1` [Example A-205, 3-[(1-cyclopropyl-1H-pyrazol-4-yl)amino]-5-[(2R,3R)-3-(4-cyclopropylbenzamido)-2-methylpiperidin-1-yl]pyrazine-2-carboxamide], the “SRC* IC50 relative to Btk IC50 value” at SRC came to 40x. In addition, the “JAK3* IC50 relative to Btk IC50 value” at JAK3 is on record as 4032x.

Consider `C[C@@H]1[C@H](NC(=O)c2ccc(C(C)(C)C)cc2)CCCN1c1cnc(C(N)=O)c(Nc2cnn(C)c2)n1` [Example A-203, 5-((2R,3R)-3-(4-tert-butylbenzamido)-2-methylpiperidin-1-yl)-3-(1-methyl-1H-pyrazol-4-ylamino)pyrazine-2-carboxamide], for which the “SRC* IC50 relative to Btk IC50 value” at SRC is reported as 98x. The “JAK3* IC50 relative to Btk IC50 value” on JAK3 is recorded as 7353x.

As to `C[C@@H]1[C@H](NC(=O)c2ccc(C3COC3)cc2)CCCN1c1cnc(C(N)=O)c(Nc2cnn(C)c2)n1` [Example A-206, 3-(1-methyl-1H-pyrazol-4-ylamino)-5-((2R,3R)-2-methyl-3-(4-(oxetan-3-yl)benzamido)piperidin-1-yl)pyrazine-2-carboxamide], on SRC, the “SRC* IC50 relative to Btk IC50 value” is recorded as 33x. Further, the “JAK3* IC50 relative to Btk IC50 value” at JAK3 came to 341x.

On to `C[C@@H]1[C@H](NC(=O)N(C)C)CCCN1c1cnc(C(N)=O)c(Nc2ccc(C(=O)N3CCN(C)CC3)cc2)n1` [Example A-98, 5-[(2R,3R)-3-[(dimethylcarbamoyl)amino]-2-methylpiperidin-1-yl]-3-{[4-(4-methylpiperazine-1-carbonyl)phenyl]amino}pyrazine-2-carboxamide], for which the half-inhibitory concentration (IC50) on SRC (Table 13, A compounds) was 100 to 1000 nM; at JAK3 (Table 13, A compounds) it was 1000 to 10000 nM.
